In PMC10464297, “Reevaluation of bromodomain ligands targeting BAZ2A” (Protein Science : A Publication of the Protein Society, 2023):

Key:
[1] = target: T1, BAZ2A bromodomain (Homo sapiens, UniProt Q9UIF9); experiment: AlphaScreen binding competition, BAZ2A bromodomain; conditions: compound at 100 μM
T1 construct: BAZ2A and BAZ2B bromodomains were produced; made in house
T1 sequence (Q9UIF9 1793-1897 limits assumed): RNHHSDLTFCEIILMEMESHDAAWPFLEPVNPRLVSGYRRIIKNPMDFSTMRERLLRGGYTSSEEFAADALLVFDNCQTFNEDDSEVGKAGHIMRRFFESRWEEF
Excerpt: (§1) BAZ2A and BAZ2B bromodomains were produced and their activity evaluated by AlphaScreen as previously reported (Dalle Vedove et al., [2018]; Spiliotopoulos et al., [2017]). BAZ2A bromodomain was crystallized as detailed in an earlier work (Spiliotopoulos et al., [2017]). Diffraction data were collected at the Elettra Synchrotron Light Source (Trieste, Italy), XRD1 and XRD2 beamlines, and the European Synchrotron Radiation Facility (ESRF, Grenoble, France), ID30A‐1/MASSIF‐1 beamline. Data were processed and structures were solved as described elsewhere (Dalle Vedove et al., [2018]). Chemical synthesis of compounds UP39 and UZH23 has already been reported (Unzue et al., [2016]; Zhu et al., [2018]). A detailed description of cell culture methods and ITC protocol is provided in the Supporting Information.
(§2) Figure S3. AlphaScreen competition binding assay for compounds UP39 and UZH23. The specific binding to the acetylated peptide relative to the control DMSO (y-axis) is plotted against the corresponding compound concentration in µM in log10 scale (x-axis).
(§3) (1 picture or pasted object on this page, not shown here)

[2] = target: T2, BAZ2B bromodomain (Homo sapiens, UniProt Q9UIF8); experiment: AlphaScreen binding competition, BAZ2B bromodomain; conditions: compound at 100 μM
T2 construct: BAZ2A and BAZ2B bromodomains were produced; made in house
T2 sequence (Q9UIF8 2060-2164 limits assumed): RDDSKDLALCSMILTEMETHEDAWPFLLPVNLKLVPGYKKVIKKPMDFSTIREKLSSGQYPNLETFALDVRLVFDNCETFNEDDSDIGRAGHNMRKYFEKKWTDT
Excerpt: as §1, §2, §3

[3] = target: T1, BAZ2A bromodomain; experiment: Screening by co‐crystallization with BAZ2A bromodomain; assay type: binding
Excerpt: as §1

[4] = tested on: first bromodomain of BRD4; design: method as in Hay et al., [2014]; Picaud et al., [2015]; conditions: ref Hay et al., [2014]; Picaud et al., [2015]; cited from earlier work
[5] = target: T1, BAZ2A bromodomain; experiment: Isothermal titration calorimetry (ITC) on BAZ2A; assay type: binding
Excerpt: It is worth noticing however that these values may be slightly overestimated. The presence of 0.25% DMSO in the ITC experiments leads to less favorable K D values as DMSO competes for binding to the conserved Asn (Lolli & Battistutta, [2013]; Navratilova et al., [2016]). […] Indeed, the change in sign of the entropic term observed for TP‐238 binding to BAZ2A (compared to BPTF and CECR2) closely resembles the effect reported for crotonyllysine binding to the TAF1 bromodomain (compared to Kac), also displacing an additional water molecule from the binding pocket (Flynn et al., [2015]). […]
Isothermal Titration Calorimetry
ITC experiments were performed using an MicroCal PEAQ-IT C microcalorimeter (Malvern Panalytical, UK) at 25°C with a stirring speed of 750 rpm in 20mM Tris pH 7. 8, 0. 2 M NaCl, 0. 2 mM TCEP and 0. 25% DMSO. For each experiment, one 0. 4 µl injection followed by eighteen 2 µl injections have been performed, with 150 seconds separating each injectio n. The inhibitors were tested at 70 µM in the cell with His -Baz2A in the syringe at 1 mM. A blank run with only the buffer was carried out (Suppl. Fig. S6). Data analysis was done with PE A Q-ITC Analysis software , fitting the curve with the ‘one site’ model.

[6] = target: PCAF; design: method as in Humphreys et al., [2017]; conditions: ref Humphreys et al., [2017]; read-out: K D PCAF bromodomain; cited from earlier work
[7] = target: GCN5; design: method as in Humphreys et al., [2017]; conditions: ref Humphreys et al., [2017]; read-out: K D GCN5 bromodomain; cited from earlier work
[8] = target: BRPF1; design: method as in Humphreys et al., [2017]; conditions: lower potency than on PCAF/GCN5; ref Humphreys et al., [2017]; read-out: potency on BRPF1 bromodomain; cited from earlier work
[9] = target: BRPF3; design: method as in Humphreys et al., [2017]; conditions: lower potency than on PCAF/GCN5; ref Humphreys et al., [2017]; read-out: potency on BRPF3 bromodomain; cited from earlier work
[10] = target: BRD1; design: method as in Humphreys et al., [2017]; conditions: lower potency than on PCAF/GCN5; ref Humphreys et al., [2017]; read-out: potency on BRD1 bromodomain; cited from earlier work

Row | % residual binding BAZ2A (100 μM) [1] [%] | % residual binding BAZ2B (100 μM) [2] [%] | located in BAZ2A Kac pocket by co‐crystallization [3] | Kd ([5]; 25°C, 0.25% DMSO, read-out: K D BAZ2A) [µM] | TΔS ([5]; BAZ2A) [kcal/mol] | ΔG ([5]; BAZ2A) [kcal/mol] | ΔH ([5]; BAZ2A) [kcal/mol] | N (sites) ([5]; BAZ2A, one site model) | SMILES | off‐target activity on the first bromodomain of BRD4 [4] | Kd [6] [nM] | Kd [7] [nM] | Kd [8] [nM] | Kd [9] [nM] | Kd [10] [nM]
1 | 95 ± 4 | 92 ± 6 | inability to act as BAZ2A inhibitors |  |  |  |  |  | COc1ccc(CCc2nc3cc(-c4c(C)noc4C)ccc3n2C[C@H](C)N2CCOCC2)cc1Cl [SGC‐CBP30] | weak off‐target activity |  |  |  |  | 
2 | 98 ± 2 | 96 ± 1 | inability to act as BAZ2A inhibitors |  |  |  |  |  | CCC(=O)N1CCOc2c(cc(-c3ccc(OC)c(OC)c3)cc2OC[C@H]2CCCN(C)C2)C1 [I‐CBP112] | weak off‐target activity |  |  |  |  | 
3 | 77 ± 5 | 70 ± 3 | located in the BAZ2A Kac pocket | 165 ± 8 | -5.8 | -5.2 | -11.0 ± 0.3 | 1 | CN1C[C@H](Nc2cnn(C)c(=O)c2Br)C[C@H](c2ccccc2)C1 [GSK4027] |  | 1.4 | 1.4 | 100 to 150 | 100 to 150 | 100 to 150
